Results on 1 compound are retold here after patent US9433607B2, “Composition for prevention or treatment of cancer comprising N-methylenenaphtho[2,1-b]furan-2-carbohydrazide derivatives as an active ingredient” (KOREA RESEARCH INSTITUTE OF BIOSCIENCE AND BIOTECHNOLOGY, priority 2012, dated 2016).

This assay deals with K562/ADR. The assay can be described thus: Cytotoxicity MTT assay, multi-drug resistant K562/ADR. It is filed as cell-based. As for the experimental part: Particularly, K562, MCF7 (Bio-Evaluation Center, Korea Research Institute of Bioscience and Biotechnology, Korea), and the multi-drug resistant cell lines thereof, K562/ADR and MCF7/ADR (Bio-Evaluation Center, Korea Research Institute of Bioscience and Biotechnology, Korea) were cultured in microtiter plate (1-3×10^3 cells/well). Then, the cells were treated with ethyl(2-methyl-3{(E)-[(naphtho[2,1-b]furan-2-ylcarbonyl)hydrazono]methyl}-1H-indole-1-yl)acetate, doxorubicin, or taxol, followed by culture for 4 days. Cytotoxicity was investigated by MTT assay by the same manner as described in Example <1-2>. IC50 was calculated by long-dose response curve. The data presents the mean value obtained from the assay performed in triplicate (Table 3).
The resistance factor of the multi-drug resistant cell line indicates the ratio of IC50 of the multi-drug resistant cell line to IC50 of the parent cell line showing no resistance, which was presented as a number in the bracket.
For orientation: Formazan colour is commonly taken as a measure of viable cells.

Broadly, the IC50 is the midpoint of a concentration-inhibition curve. `CCOC(=O)Cn1c(C)c(/C=N/NC(=O)c2cc3c(ccc4ccccc43)o2)c2ccccc21` [STK899704] displayed a half-inhibitory concentration (IC50) (Homo sapiens, 96 h, K562/ADR, MTT, 4 days) of 285 µM. The “resistance factor (number in the bracket)” value (ratio of IC50 of K562/ADR to IC50 of parent K562) is listed as 0.6.
